Here are results for 4 molecules from patent US20240199555A1, “APPLICATIONS OF BIASED LIGANDS OF THE SEROTONIN 5-HT7 RECEPTOR FOR THE TREATMENT OF PAIN, MULTIPLE SCLEROSIS AND THE CONTROL OF THERMOREGULATION” (Centre National de la Recherche Scientifique, priority 2021, published 2024).

Molecules are shown by their SMILES.

One assay addresses h5-HT7R (Homo sapiens (Human), UniProt P34969). Nature of the assay: ERK1/2 and c-SRC phosphorylation by western blot in HEK-293 cells stably expressing h5-HT7R. Type of assay: cell-based. The settings on record: 10 μM of ligand or increasing concentrations, western blot. As to the method:
(A, B, C, D, E, F) Time course of activation of ERK1/2 after stimulation of HEK-293 cells stably expressing h5-HT7R with various 5-HT7R ligands used at 10 μM. The cells were stimulated for the indicated periods and assayed for detection of phospho ERK1/2 by western blot analysis. […] Representative blots of three independent experiments are illustrated. The histogram on the right of each panel represents the results of densitometric analyses of three independent experiments. Data are means±SEM. * p<0.05; ** p<0.01; *** p<0.001 versus non stimulated cells (NS).
HEK-293 cells stably expressing h5-HT7R were stimulated with increasing concentrations of 5-CT or Serodolin for 7 minutes. Cells were lysed, and western blot analysis was performed. Representative Western blots from three independent experiments were shown in A-C. Quantification was performed by densitometric analyses from three independent experiments. Analyzed data were plotted versus log concentration for each compounds (A; B) or as bar graph (C) on the right panel.
Time course of activation of ERK1/2 after stimulation of HEK-293 cells stably expressing h5-HT7R with JLB060, a 5-HT7R ligand used at 10 μM. The cells were stimulated for the indicated periods and assayed for detection of phospho ERK1/2 by western blot analysis.
(§1) Treated cells were washed twice with cold PBS and lysed on ice for 30 min in lysis buffer containing 50 mM Tris pH 7.5, 150 mM NaCl, 10 mM EDTA, 1% Triton X-100 and the protease inhibitor cocktail. Cell lysates were centrifuged at 10,000×g for 10 min. Supernatant was then solubilized in Laemmli buffer with 0.1% β-mercaptoethanol. Samples were resolved by electrophoresis on 10% SDS-PAGE, and transferred electrophoretically to polyvinylidene fluoride (PVDF) membranes (GE Healthcare Life Sciences). […] membranes were washed in Tris-buffered saline (TBS; pH 7.4) containing 0.1% Tween-20 (TBS-T; 0.1%) and blocked with 5% (w/v) dry milk TBS-T 0.1% for 30 min. […] Blots were probed with anti-arrestin, anti-Phospho-ERK or anti-ERK antibody (1:2000), anti Phospho-SRC, anti SRC antibody, anti-HA or anti-GFP or anti-actin antibodies. Horseradish-peroxidase-conjugated goat anti-rabbit, anti-mouse or anti-rat antibodies (1:33,000) were used as secondary antibodies. Immunoreactive bands were detected using the Dura detection kit. Protein quantification on blots was performed using Quantity One software (Biorad).
as §1, with “12%” for “10%”, “with” for “with anti-arrestin,”, “anti-Phospho-ERK (1:2000)” for “anti-Phospho-ERK”, “anti-GAPDH” for “anti-ERK”, “(1:5000). […]” for “(1:2000), anti Phospho-SRC, anti SRC antibody, anti-HA or anti-GFP or anti-actin antibodies. Horseradish-peroxidase-conjugated goat anti-rabbit, anti-mouse or anti-rat antibodies (1:33,000) were used as secondary antibodies.”
ERK phosphorylation was monitored by western blotting after treatment of cells with 10 μM of ligands at different times ranging from 2 to 60 minutes.

The target of a further assay is human 5-HT7a receptor (Homo sapiens (Human), UniProt P34969). Nature of the assay: Radioligand binding competition, filtration binding assay, 5-HT7a. The conditions noted are these: affinity on 5-HT7 receptor, table of new compounds. As to the method:
(§2) FIG. 14: Testing of 8 molecules for radioligand binding competition activity on recombinant human 5-HT1A, 5-HT2A, 5-HT2Cedited, 5-HT6, 5-HT7 and D2(long) receptors using filtration binding assays.
(§3) Radioligand Binding experiments were conducted with Epics Therapeutics membrane preparations. Receptor accession numbers, cellular background and reference compounds are shown in this table.
Reference values thus obtained for the test were compared to historical values obtained from the same receptor and used to validate the experimental session. For replicate determinations, the maximum variability tolerated in the test was of +/−20% around the average of the replicates.
(§4) Dose-response data from test compounds were analyzed with XLfit (IDBS) software using nonlinear regression applied to a sigmoidal dose-response model and the following equation: • XL Fit fit Model 203: 4 Parameter Logistic Model • A: Bottom • B: TOP • C: LogEC50 • D: Hill

The target in the next assay is human 5-HT1A receptor (Homo sapiens (Human), UniProt P08908). Description: Radioligand binding competition, 5-HT1A. The conditions noted are these: selectivity panel. As for the experimental part:
as §2, §3
(§5) The new compounds have been tested by radioligand binding competition activity at the human 5-HT1A (FAST-0500B), 5-HT2A (FAST-0505B), 5-HT2Cedited (FAST-0507B), 5-HT6 (FAST-0509B), 5-HT7a (FAST-05111B) and D2(long) (FAST-0101B) receptors at seven (7) concentrations, in duplicate. […] Reference values thus obtained for the test were compared to historical values obtained from the same receptor and used to validate the experimental session. For replicate determinations, the maximum variability tolerated in the test was of +/−20% around the average of the replicates.
as §4

The next assay has as its target human 5-HT2A receptor (Homo sapiens (Human), UniProt P28223). Description: Radioligand binding competition, 5-HT2A. The settings on record: selectivity panel. As for the experimental part: as §2, §3, §5, §4
The target of assay [1] is human 5-HT2Cedited receptor (Homo sapiens, UniProt P28335). Nature of the assay: Radioligand binding competition, 5-HT2Cedited. The conditions noted are these: selectivity panel. As for the experimental part: as §2, §3, §5, §4
Chain of human 5-HT2Cedited receptor (P28335 33-458 limits assumed): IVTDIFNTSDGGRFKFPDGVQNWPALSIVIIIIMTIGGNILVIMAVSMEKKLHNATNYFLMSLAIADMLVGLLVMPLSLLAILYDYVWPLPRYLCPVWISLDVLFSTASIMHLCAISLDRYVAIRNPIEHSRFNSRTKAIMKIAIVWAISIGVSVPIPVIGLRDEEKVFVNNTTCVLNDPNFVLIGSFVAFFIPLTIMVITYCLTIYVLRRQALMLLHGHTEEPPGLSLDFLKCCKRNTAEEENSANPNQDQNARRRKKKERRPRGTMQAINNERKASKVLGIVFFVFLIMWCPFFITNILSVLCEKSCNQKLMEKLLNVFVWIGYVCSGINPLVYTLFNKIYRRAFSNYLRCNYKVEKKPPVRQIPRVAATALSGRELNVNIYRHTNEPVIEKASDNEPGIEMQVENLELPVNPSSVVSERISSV
The test system of the next assay is C57BL/6 mice. Nature of the assay: Spared Nerve Injury (SNI) neuropathic pain model, Von Frey. The conditions noted are these: s.c.
Another assay concerns mice. Description: Acetic acid-induced writhing test. The conditions noted are these: 3 mg/kg, s.c., positive control. Format: in vivo. As for the experimental part: (§6) FIG. 9: Analgesic effect of Serodolin in the acetic acid-induced writhing test. In this test, nociception was induced by an intraperitoneally injection (ip) of 0.1 ml/10 g acid acetic solution (10 ml/kg) in peripheral origin. Serodolin at increasing dosage was administrated by oral (po), intravenous (iv) or subcutaneous (sc) route before acid acetic injection (upper panel). Positive control animals were pretreated morphine (3 mg/kg, sc) 10 minutes before acetic acid. Five minutes after i.p. injection of acetic acid the number of writhing was recorded for 10 minutes. Data mean±SEM of values obtained from a representative experiment (n=10 animals/group). ****p<0.0001 ***p<0.001 **p<0.01 *p<0.05 as compared with the control group (Vh).
as §6, with “16:” for “9:”, “MOA51” for “Serodolin”, “i.p.injection” for “i.p. injection”, “animals/group).” for “animals/group). ****p<0.0001 ***p<0.001”, “**p<0.01” for “**p<0.01 *p<0.05”
Writhing tests: Mice (25-35 g). Groups of mice (n=10) received by oral, subcutaneous or intravenous route Serodolin at different doses (0.1-10 mg/kg) one hour before intraperitoneally injection of 1% acetic acid in a volume of 10 ml/kg. Control group received vehicle (10 ml/kg, solution of 20% DMSO and 5% tween 80). The test was carried out 5 minutes later after acid acetic injection. The characteristic writhing responses have been observed individually and counted for 10 minutes.
Analgesic activity was first evaluated using the acetic acid abdominal constriction test (writhing test), a chemical model of visceral pain. We evaluated the dose-response effect of Serodolin following single oral, intravenous and subcutaneous administration of the compound one hour before injection of acetic acid.
Analgesic activity was evaluated using the acetic acid abdominal constriction test (writhing test), a chemical model of visceral pain. We evaluated the dose-response effect of MOA51 following single oral, intravenous and subcutaneous administration of the compound one hour before injection of acetic acid. MOA51 administered by the oral route induced statistically significant dose-dependent decreases in the number of writhings at and above the dose of 1 mg/kg. By the intravenous route, MOA51 induced dose-dependent decreases in the number of writhings at and above the dose of 0.1 mg/kg.

The test system of a further assay is Sprague-Dawley male rats. Description: Formalin induced inflammatory pain model. Format: in vivo. The settings on record: single s.c., Serodolin 10 mg/kg, MOA51 1 mg/kg, morphine. As for the experimental part: FIG. 18: Effect of a single administration of Serodolin (AIC01) or MOA51 in the formalin test in rats. Effect of a single subcutaneous administration of Serodolin (AIC01) or MOA51 in the formalin test in rats. In this test, Sprague-Dawley male rats received unilateral injection of a 2.5% formalin solution (50 μl) into the plantar aspect of the hindpaw on testing day (i.e. D0). Control group received Vehicle (20% DMSO/5% Tween 80/NaCl). Serodolin was subcutaneously (sc) administrated at 10 mg/kg and MOA51 at 1 mg/kg. Positive control animals were treated with morphine (3 mg/kg, sc). Paw licking time was measured. Results are expressed as mean±s.e.m. Percentage are expressed as decreased as compared to the vehicle-treated group and represented as figure (B). ***: p<0.001 as compared to the vehicle-treated group, Bonferroni's test after significant Two-way Repeated Measures ANOVA. NS: Non-significant.
Sprague-Dawley male rats (n=10 rats per group) received unilateral injection of a 2.5% formalin solution (50 μl) into the plantar aspect of the hindpaw on testing day (i.e. D0). Experience was separated into 4 groups of animals. Formalin animals+vehicle-treated group; […]—Formalin animals+Sponsor's Serodolin (10 mg/kg), s.c.—Formalin animals+Sponsor's MOA51 (1 mg/kg), s.c.—Formalin animals+internal validator-treated group (Morphine at 4 mg/Kg, s.c.). Single subcutaneous administration of the Vehicle and Sponsor's Compound 30 min (or other timing depending on Sponsor's design) before formalin injection on testing day (i.e. D0)/Subcutaneous administration of Morphine 30 min before formalin injection on testing day (i.e. D0). Hindpaw licking time recorded in consecutive 5 minutes periods from 0 to 5 minutes (early phase) and 17 to 27 minutes (late phase) after formalin injection.
We evaluated the effect of Serodolin as well as MOA51 in rats in the formalin test, an acute and tonic pain model based on the use of a chemical stimulus. Subcutaneous injection of formalin into the right hindpaw produces a biphasic painful response of increasing and decreasing intensity for about 30 minutes after the injection. […] Although not significant, Serodolin, MOA51 and morphine have an inhibitory effect (−40%, −35% and −57% respectively) during the early phase.

Chain of human 5-HT2A receptor (P28223 whole entry): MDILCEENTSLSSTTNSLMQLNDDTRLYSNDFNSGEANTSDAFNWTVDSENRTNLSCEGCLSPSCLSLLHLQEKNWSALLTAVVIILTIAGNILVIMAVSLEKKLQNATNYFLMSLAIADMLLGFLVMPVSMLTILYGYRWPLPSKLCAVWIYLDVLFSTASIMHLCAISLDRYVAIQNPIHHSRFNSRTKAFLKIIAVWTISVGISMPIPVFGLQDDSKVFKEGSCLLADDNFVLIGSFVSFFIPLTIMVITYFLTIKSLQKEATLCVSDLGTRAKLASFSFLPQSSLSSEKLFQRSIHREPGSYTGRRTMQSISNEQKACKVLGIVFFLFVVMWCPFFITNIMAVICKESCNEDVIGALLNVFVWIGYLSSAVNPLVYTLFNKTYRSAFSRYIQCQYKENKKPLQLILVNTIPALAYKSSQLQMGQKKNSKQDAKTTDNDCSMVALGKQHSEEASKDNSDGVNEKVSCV
Chain of human 5-HT1A receptor (P08908 whole entry): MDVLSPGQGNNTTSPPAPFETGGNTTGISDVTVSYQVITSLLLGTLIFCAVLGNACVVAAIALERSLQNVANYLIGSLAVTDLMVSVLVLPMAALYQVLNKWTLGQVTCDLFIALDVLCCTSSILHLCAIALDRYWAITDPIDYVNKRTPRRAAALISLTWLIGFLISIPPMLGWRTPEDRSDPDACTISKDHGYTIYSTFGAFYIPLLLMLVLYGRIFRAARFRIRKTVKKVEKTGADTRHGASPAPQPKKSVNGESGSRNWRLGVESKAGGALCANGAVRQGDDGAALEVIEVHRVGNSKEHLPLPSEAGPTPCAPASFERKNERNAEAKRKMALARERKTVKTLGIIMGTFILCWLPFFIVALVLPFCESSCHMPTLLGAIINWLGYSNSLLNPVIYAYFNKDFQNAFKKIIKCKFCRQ
Chain of human 5-HT7a receptor (P34969 other isoform, or with tags, fused parts or gaps): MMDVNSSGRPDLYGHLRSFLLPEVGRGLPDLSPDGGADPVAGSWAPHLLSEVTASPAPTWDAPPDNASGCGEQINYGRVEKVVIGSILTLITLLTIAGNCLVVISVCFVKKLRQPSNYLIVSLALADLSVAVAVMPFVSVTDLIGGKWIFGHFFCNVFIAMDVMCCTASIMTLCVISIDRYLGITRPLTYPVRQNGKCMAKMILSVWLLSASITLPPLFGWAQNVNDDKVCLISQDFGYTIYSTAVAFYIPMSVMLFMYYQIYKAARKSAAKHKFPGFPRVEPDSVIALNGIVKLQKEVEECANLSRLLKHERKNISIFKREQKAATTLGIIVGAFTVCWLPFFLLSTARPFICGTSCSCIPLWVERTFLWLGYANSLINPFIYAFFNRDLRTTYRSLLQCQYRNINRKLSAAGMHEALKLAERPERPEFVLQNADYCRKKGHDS
Chain of h5-HT7R (P34969 1-432): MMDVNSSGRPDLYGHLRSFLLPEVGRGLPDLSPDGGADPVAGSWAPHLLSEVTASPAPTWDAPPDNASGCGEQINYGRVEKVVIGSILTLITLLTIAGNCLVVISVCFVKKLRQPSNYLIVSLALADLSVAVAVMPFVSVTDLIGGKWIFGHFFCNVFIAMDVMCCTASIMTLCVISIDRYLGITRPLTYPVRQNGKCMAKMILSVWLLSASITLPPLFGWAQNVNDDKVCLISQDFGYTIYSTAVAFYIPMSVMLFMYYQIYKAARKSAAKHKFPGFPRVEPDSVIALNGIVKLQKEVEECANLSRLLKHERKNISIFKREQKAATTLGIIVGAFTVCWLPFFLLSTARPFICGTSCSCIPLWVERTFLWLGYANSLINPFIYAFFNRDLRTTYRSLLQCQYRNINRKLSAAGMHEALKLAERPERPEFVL
Experimental for C57BL/6 mice: Pregabalin, vehicle or compounds solutions are subcutaneously administrated for 8 consecutive days. • (A) Mechanical response threshold after the first administration (D+10). […] Positive control animals were treated with Pregabalin (5 mg/kg, sc). Statistical differences are indicated compared to vehicle group (Two-way RM ANOVA followed by Bonferroni post-hoc test: ***p<0.001, ** p<0.01, * p<0.05). […] Positive control animals were treated with Pregabalin (5 mg/kg, sc). Statistical differences are indicated compared to vehicle group (Two-way RM ANOVA followed by Bonferroni post-hoc test: ***p<0.001, ** p<0.01, * p<0.05). […] (Two-way RM ANOVA followed by Bonferroni post-hoc test: ***p<0.001, ** p<0.01, * p<0.05)
MOA51 and Serodolin (AIC01) compounds were diluted in NDT solution (NaCl 0.9%—DMSO 20%—Tween80 5%). […] AIC01 was resuspended at 0.5 mg/mL and administrated at a ratio of 100 μl per 10 g (dose of 5 mg/kg).
Experiment starts with 8 weeks old male C57B16J mice (from Charles River). Study was performed on 40 mice (2 mice were excluded during the study due to health guidelines) divided in 4 randomized groups. • Group A: s.c. injection at 5 mg/kg of pregabalin. • Group B: s.c. injection at 0.5 mg/kg of MOA51. • Group C: s.c. injection at 5 mg/kg of Serodolin (AIC01). • Group D: s.c. injection of NDT solution (referred as Vehicle hereafter).
Compounds solutions, pregabalin and vehicle were subcutaneously administrated (100 μl/10 g) for 9 consecutive days, starting 10 days after surgery. Ligature and transection of the common peroneal and tibial distal branches of the sciatic nerve was made leaving the sural branch intact. 7 days post-surgery, a decrease of threshold response to Von Frey filaments of ipsilateral hind-paw was observed corresponding to neuropathic pain apparition (mechanical allodynia). Mechanical threshold response of mice were measured with calibrated Von Frey filaments using the up/down method. Experimenter was blind to mice treatment. Measures are performed as follow: one baseline measure before surgery, one measure at D+10, D+12, D+14, D+16 and D+18 before drug's administration, and 1 h, 2 h post-drug administration. A supplementary measure 4 h post-drug administration was performed at D+10 and D+18.
Two-way RM ANOVA (followed by Bonferroni post-hoc test) was used to analysed time course response at D+10 and D+18. Area under the curve was determined with the 1 h and 2 h post-drug administration measures to investigated tolerance of repeated administration of compounds

As to `O=C1Nc2cccc3c2C1(CCCCN1CC=C(c2ccccc2)CC1)CCC3` (stereo not drawn) [DR4004, reference compound], the “induction of ERK phosphorylation” value at h5-HT7R is “none of them were able to induce ERK activation”.

Turning to `O=c1[nH]c2ccccc2n1CCCCCN1CCCN(c2ccc(F)cc2)CC1` [JLB060], the IC50 at human 5-HT7a receptor was 0.98 nM; on human 5-HT1A receptor (read-out: RLB 5-HT1A IC50) it was 850 nM; on human 5-HT2A receptor (read-out: RLB 5-HT2A IC50) it was 137 nM; in assay [1] (read-out: RLB 5-HT2Cedited IC50) it was 902 nM. Further, the Ki is 0.69 nM on human 5-HT7a receptor, 425 nM on human 5-HT1A receptor (read-out: RLB 5-HT1A Ki), 23 nM at human 5-HT2A receptor (read-out: RLB 5-HT2A Ki) and 148 nM in assay [1] (read-out: RLB 5-HT2Cedited Ki). In addition, at h5-HT7R, the “induction of ERK phosphorylation” value is reported as “robustly induce ERK phosphorylation”.

`CC(C)C[C@H](CN)CC(=O)O` [Pregabalin, reference compound]: the “tolerance after repetitive administration (AUC)” value with C57BL/6 mice (9 consecutive days) is listed as “significant decrease of the analgesic effect”. For the same molecule, the “mechanical response threshold vs vehicle” value in the assay with C57BL/6 mice (first (D+10) and last (D+18) administration, 1 h and 2 h) was “significant increase of the mechanical response threshold”.

As to `CN1CC[C@]23c4c5ccc(O)c4O[C@H]2[C@@H](O)C=C[C@H]3[C@H]1C5` [morphine, reference compound], the “inhibition of the writhing assay response” value with mice was “full inhibition”. Moreover, the “inhibitory effect on paw licking, early phase” value in the assay on Sprague-Dawley male rats (0 to 5 minutes, not significant) is recorded as −57%. The “inhibition of licking, late phase” value in the assay on Sprague-Dawley male rats (17 to 27 minutes) is listed as −64%.
